From the supplement of paper PMC10331698
± gives the standard deviation of the averaged measurements.

Experiments:
Assay in all cases: level (log10 ratio to DMSO vehicle control); higher = higher biomarker level / cell amount than vehicle control
Settings in all cases: in DMSO
[1] = compound: FC(F)(F)C(F)(F)C(F)(F)C(F)(F)C(F)(F)C(F)(F)C(F)(F)C(F)(F)CCS [2-(Perfluorooctyl)ethanthiol]
Method: (§1)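 BioMAP Diversity Plus panel of 12 human primary cell co-culture systems (3C, 4H, LPS, SAg, BT, BF4T, BE3C, CASM3C, HDF3CGF, KF3CT, MyoF, Mphg). Compounds were added 1 h before stimulation and left for 24 h (MyoF 48 h; BT 72 h for soluble read-outs or 6 d for IgG). Biomarkers were read by ELISA, cytotoxicity by SRB, PBMC viability and proliferation by Alamar Blue. Each well value was divided by the mean of 8 DMSO control wells on the same plate and log10 transformed; duplicate blinded samples were tested at 4 concentrations.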

[2] = compound: FC(F)(F)C(F)(C(F)(F)F)C(F)(F)C(F)(F)CC1CO1 [3-(Perfluoro-3-methylbutyl)-1,2-propenoxide]
Method: as §1

[3] = compound: O=C(O)C(F)(F)C(F)(F)C(F)(F)C(F)(F)C(F)(F)C(F)(F)C(F)(F)C(F)(F)C(F)(F)F [Perfluorodecanoic acid]
Method: as §1

[4] = compound: CCN(CCO)S(=O)(=O)C(F)(F)C(F)(F)C(F)(F)C(F)(F)C(F)(F)C(F)(F)C(F)(F)C(F)(F)F [N-Ethyl-N-(2-hydroxyethyl)perfluorooctanesulfonamide]
Method: as §1

[5] = compound: O=C(O)C(F)(F)C(F)(F)C(F)(F)F [Perfluorobutanoic acid]
Method: as §1

[6] = compound: OCCC(F)(F)C(F)(F)C(F)(F)C(F)(F)C(F)(F)C(F)(F)F [6:2 Fluorotelomer alcohol]
Method: as §1

[7] = compound: COC(=O)CCC(F)(F)C(F)(F)C(F)(F)C(F)(F)F [Methyl 2H,2H,3H,3H-perfluoroheptanoate]
Method: as §1

[8] = compound: FC(F)(F)C(F)(F)C(F)(F)C(F)(F)C(F)(F)CCI [1-Iodo-1H,1H,2H,2H-perfluoroheptane]
Method: as §1

Test System	level (log10) ([1]; 6700 nM)	level (log10) ([1]; 20000 nM)	level (log10) ([2]; 6700 nM)	level (log10) ([2]; 20000 nM)	level (log10) ([3]; 6700 nM)	level (log10) ([3]; 20000 nM)	level (log10) ([4]; 6700 nM)	level (log10) ([4]; 20000 nM)	level (log10) ([5]; 6700 nM)	level (log10) ([5]; 20000 nM)	level (log10) ([5]; 60000 nM)	level (log10) ([6]; 6700 nM)	level (log10) ([6]; 20000 nM)	level (log10) ([7]; 6700 nM)	level (log10) ([7]; 20000 nM)	level (log10) ([7]; 60000 nM)	level (log10) ([8]; 6700 nM)	level (log10) ([8]; 20000 nM)	level (log10) ([8]; 60000 nM)
CASM3C:CD141/Thrombomodulin	-0.034 ± 0.048	-0.0065 ± 0.09	0.003	0 ± 0.044	-0.015 ± 0.031	-0.0125 ± 0.029	0.078 ± 0.014	0.191 ± 0.013	0.0145 ± 0.021	0.022 ± 0.0028	-0.0045 ± 0.037	0.0235 ± 0.0092	0.005 ± 0.023	-0.042 ± 0.024	-0.017 ± 0.048	0.003 ± 0.017	-0.011 ± 0.0085	0.0015 ± 0.012	0.0845 ± 0.012
lMphg:SRB	-0.008 ± 0.0014	-0.011 ± 0.013	-0.007 ± 0.014	-0.0045 ± 0.0078	0.009 ± 0.0085	0.004 ± 0.0057	-0.0215 ± 0.0078	-0.0435 ± 0.022	-0.012 ± 0.017	-0.0235 ± 0.037	0.002 ± 0.031	-0.014 ± 0.017	-0.0125 ± 0.0021	-0.008 ± 0.02	-0.016 ± 0.0057	-0.0095 ± 0.023	0.006 ± 0.013	-0.011 ± 0.0014	-0.001 ± 0.0057
CASM3C:CD106/VCAM-1	-0.0135 ± 0.005	-0.014 ± 0.0099	-0.022 ± 0.014	-0.0145 ± 0.019	0.0015 ± 0.0092	-0.036 ± 0.0085	-0.085 ± 0.0057	-0.219 ± 0.021	-0.007 ± 0.016	-0.006 ± 0.0014	-0.039 ± 0.018	0.0105 ± 0.018	0.017 ± 0.0099	-0.021 ± 0.027	-0.019 ± 0.0071	-0.0085 ± 0.005	0.0215 ± 0.005	-0.0015 ± 0.0078	-0.063 ± 0.0014
HDF3CGF:PAI-I	-0.077 ± 0.054	-0.0885 ± 0.066	-0.003 ± 0.028	0.0125 ± 0.015	0.15 ± 0.051	-0.107 ± 0.1	-0.0695 ± 0.061	-0.211 ± 0.08	-0.0025 ± 0.029	0.007 ± 0.054	0.018 ± 0.052	-0.013 ± 0.014	-0.004 ± 0.013	0.0005 ± 0.0035	-0.0055 ± 0.0092	0.002 ± 0.021	0.078 ± 0.02	0.0135 ± 0.0078	0.0355 ± 0.096
CASM3C:Proliferation	0.006 ± 0.0071	-0.0105 ± 0.053	-0.001 ± 0.047	0.0195 ± 0.071	0.049 ± 0.0028	0.0205 ± 0.035	0.011 ± 0.04	-0.175 ± 0.005	0.01 ± 0.0099	-0.0015 ± 0.025	-0.007 ± 0.017	-0.004 ± 0.021	-0.0205 ± 0.023	-0.001 ± 0.0028	-0.038 ± 0.0042	0.0025 ± 0.0035	-0.034 ± 0.0071	-0.101 ± 0.062	-0.106 ± 0.054
HDF3CGF:SRB	0.0135 ± 0.023	0.011 ± 0.0085	0.0005 ± 0.057	0.0145 ± 0.06	0.0725 ± 0.044	0.131 ± 0.016	-0.127 ± 0.011	-0.153 ± 0.084	0.0125 ± 0.0064	-0.007 ± 0.0028	0.002 ± 0.0071	-0.0245 ± 0.073	0.008 ± 0.054	0.0005 ± 0.005	-0.001 ± 0.057	0.0735 ± 0.091	0.0335 ± 0.036	0.0065 ± 0.023	-0.052 ± 0.033
HDF3CGF:Proliferation 72hr	-0.003 ± 0.0071	-0.0115 ± 0.013	0 ± 0.034	0.0055 ± 0.0078	0.115 ± 0.025	-0.934 ± 0.037	-0.391 ± 0.079	-0.746 ± 0.094	0.01 ± 0.054	0.0145 ± 0.0021	0.0285 ± 0.029	-0.007 ± 0.05	0.0005 ± 0.086	0.011 ± 0.0057	0.013 ± 0.0057	0.0705 ± 0.044	-0.058 ± 0.0099	-0.257 ± 0.04	-0.832 ± 0.16
MyoF:CXCL8/IL-8	-0.0085 ± 0.011	0.007 ± 0.016	0.0045 ± 0.00071	0.0185 ± 0.0021	0.0205 ± 0.037	0.0085 ± 0.016	-0.193 ± 0.011	-0.12 ± 0.022	-0.03 ± 0.1	-0.0355 ± 0.073	0.025 ± 0.024	0.0185 ± 0.032	-0.0045 ± 0.0021	-0.0085 ± 0.00071	-0.001 ± 0.0071	0.0155 ± 0.039	-0.0015 ± 0.019	0.028 ± 0.018	0.043 ± 0.038
3C:CD62E/E-Selectin	-0.0065 ± 0.03	-0.0235 ± 0.036	-0.0215 ± 0.0078	-0.0115 ± 0.013	-0.004 ± 0.0085	0.0025 ± 0.019	0.0685 ± 0.012	0.068 ± 0.0057	-0.0155 ± 0.011	0.0075 ± 0.012	-0.0185 ± 0.0035	-0.0075 ± 0.043	-0.024 ± 0.042	-0.037 ± 0.0071	-0.012 ± 0.013	0.0005 ± 0.022	-0.005 ± 0.0071	0.004 ± 0.011	0.008 ± 0.018
MyoF:CD106/VCAM-1	0.0155 ± 0.00071	-0.0735 ± 0.083	0.008 ± 0.011	-0.0305 ± 0.019	-0.019 ± 0.0071	-0.084 ± 0.02	-0.0675 ± 0.0064	-0.534 ± 0.053	-0.013 ± 0.0028	-0.007 ± 0.0014	-0.0075 ± 0.015	0.016 ± 0.0071	0.0045 ± 0.019	-0.003 ± 0.0014	0.0105 ± 0.021	0.018 ± 0.011	0.001 ± 0.0042	-0.026 ± 0.0028	-0.0205 ± 0.0064
HDF3CGF:CCL2/MCP-1	-0.0505 ± 0.03	-0.077 ± 0.014	-0.0175 ± 0.022	-0.004 ± 0.0099	-0.0595 ± 0.0078	0.042 ± 0.034	-0.0485 ± 0.005	-0.1335 ± 0.00071	-0.008 ± 0.021	0.004 ± 0.014	0.017 ± 0.0014	0.0015 ± 0.0035	0.0095 ± 0.019	-0.039 ± 0.021	-0.0375 ± 0.06	-0.014 ± 0.014	0.0085 ± 0.0035	0.02 ± 0.021	-0.013 ± 0.035
BE3C:MMP-9	-0.0195 ± 0.011	-0.069 ± 0.018	-0.005 ± 0.0071	-0.018 ± 0.011	0.008 ± 0.014	-0.458 ± 0.0028	0.018 ± 0.0071	-0.0535 ± 0.04	-0.0075 ± 0.021	-0.007 ± 0.035	-0.0145 ± 0.015	0.0055 ± 0.0078	-0.0215 ± 0.022	-0.001 ± 0.011	-0.0065 ± 0.023	-0.0155 ± 0.013	-0.0125 ± 0.0092	0.026 ± 0.0099	0.0525 ± 0.021
CASM3C:HLA-DR	-0.0165 ± 0.012	0.003 ± 0.0028	-0.0105 ± 0.026	-0.0185 ± 0.0092	0	0.006 ± 0.014	-0.002 ± 0.024	-0.111 ± 0.013	0.012 ± 0.011	0.0065 ± 0.015	-0.0085 ± 0.018	0 ± 0.025	-0.025 ± 0.023	-0.0185 ± 0.005	-0.014 ± 0.018	-0.011 ± 0.028	-0.006 ± 0.0099	-0.0055 ± 0.0064	-0.009 ± 0.021
